Assay results published in PMC4579270, “Identification and Characterization of an Irreversible Inhibitor of CDK2” (Chemistry & Biology, 2015).
Where two headings read alike, the source gives them in different places.

Key:
Assay in all cases: Dundee kinase screen re-test (standard format and 4 hour pre-incubation)
Type in all cases: biochemical
YES1 = YES1 (Homo sapiens, UniProt P07947); details: YES1, 0.5µM
Summary of the method: (§1)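 Selectivity panel of 131 protein kinases, inhibitor tested at a single concentration of 1 µM; values are % kinase activity remaining, mean of duplicates. Re-test of selected kinases used 0.5 µM in the standard format and again after a 4 hour pre-incubation with the inhibitor.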

IR = IR (Homo sapiens, UniProt P06213)
Summary of the method: as §1

PDK1 = target: T1, PDK1 (Homo sapiens, UniProt O15530); details: PDK1, 0.5µM
T1 sequence (O15530 1-556): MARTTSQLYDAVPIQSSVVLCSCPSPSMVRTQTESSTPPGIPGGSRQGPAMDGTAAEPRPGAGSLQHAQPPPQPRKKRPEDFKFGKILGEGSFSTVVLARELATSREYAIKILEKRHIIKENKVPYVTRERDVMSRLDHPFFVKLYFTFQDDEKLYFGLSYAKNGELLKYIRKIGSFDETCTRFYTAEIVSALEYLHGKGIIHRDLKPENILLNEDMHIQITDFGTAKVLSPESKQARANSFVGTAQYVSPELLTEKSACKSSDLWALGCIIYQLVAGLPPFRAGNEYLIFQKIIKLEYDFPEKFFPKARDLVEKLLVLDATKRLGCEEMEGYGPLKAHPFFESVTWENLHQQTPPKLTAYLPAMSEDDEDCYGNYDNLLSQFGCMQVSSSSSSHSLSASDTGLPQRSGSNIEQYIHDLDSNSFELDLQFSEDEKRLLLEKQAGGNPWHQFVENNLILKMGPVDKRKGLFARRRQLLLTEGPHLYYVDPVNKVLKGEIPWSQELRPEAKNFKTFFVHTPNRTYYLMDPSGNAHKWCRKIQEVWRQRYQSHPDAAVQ
Summary of the method: as §1

TBK1 = target: T2, TBK1 (Homo sapiens, UniProt Q9UHD2); details: TBK1, 0.5µM
T2 sequence (Q9UHD2 1-729): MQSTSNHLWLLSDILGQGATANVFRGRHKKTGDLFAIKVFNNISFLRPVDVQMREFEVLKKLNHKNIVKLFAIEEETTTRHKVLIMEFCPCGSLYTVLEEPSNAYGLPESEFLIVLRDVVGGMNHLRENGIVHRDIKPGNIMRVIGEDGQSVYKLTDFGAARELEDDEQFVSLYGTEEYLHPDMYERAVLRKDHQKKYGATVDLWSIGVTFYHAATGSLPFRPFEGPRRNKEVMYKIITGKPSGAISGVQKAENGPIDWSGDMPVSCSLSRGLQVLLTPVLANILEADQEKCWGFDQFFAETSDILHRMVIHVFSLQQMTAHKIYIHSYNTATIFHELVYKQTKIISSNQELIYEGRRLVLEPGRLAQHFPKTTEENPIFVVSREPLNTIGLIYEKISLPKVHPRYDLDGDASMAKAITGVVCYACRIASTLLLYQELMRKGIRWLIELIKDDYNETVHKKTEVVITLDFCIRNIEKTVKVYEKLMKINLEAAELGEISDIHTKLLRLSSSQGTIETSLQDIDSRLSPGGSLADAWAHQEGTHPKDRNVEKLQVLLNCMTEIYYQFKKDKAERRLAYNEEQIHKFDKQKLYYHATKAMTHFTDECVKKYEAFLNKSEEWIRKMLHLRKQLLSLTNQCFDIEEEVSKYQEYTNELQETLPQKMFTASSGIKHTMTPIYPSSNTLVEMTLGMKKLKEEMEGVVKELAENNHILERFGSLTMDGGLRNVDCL
Summary of the method: as §1

JAK2 = JAK2 (Homo sapiens, UniProt O60674); details: JAK2, 0.5µM
Summary of the method: as §1

CDK2-Cyclin A = CDK2-Cyclin A (Homo sapiens, UniProt P24941); details: for remaining activity at 0.5 µM: CDK2/cyclin A
Summary of the method: as §1

[1] = 4hr RT preincubation, read-out: %Remaining activity at 0.5µM NU6300 - 4hr RT preincubation
[2] = usual format, read-out: %Remaining activity at 0.5µM NU6300 - Usual assay format

Chain of YES1 (P07947 whole entry): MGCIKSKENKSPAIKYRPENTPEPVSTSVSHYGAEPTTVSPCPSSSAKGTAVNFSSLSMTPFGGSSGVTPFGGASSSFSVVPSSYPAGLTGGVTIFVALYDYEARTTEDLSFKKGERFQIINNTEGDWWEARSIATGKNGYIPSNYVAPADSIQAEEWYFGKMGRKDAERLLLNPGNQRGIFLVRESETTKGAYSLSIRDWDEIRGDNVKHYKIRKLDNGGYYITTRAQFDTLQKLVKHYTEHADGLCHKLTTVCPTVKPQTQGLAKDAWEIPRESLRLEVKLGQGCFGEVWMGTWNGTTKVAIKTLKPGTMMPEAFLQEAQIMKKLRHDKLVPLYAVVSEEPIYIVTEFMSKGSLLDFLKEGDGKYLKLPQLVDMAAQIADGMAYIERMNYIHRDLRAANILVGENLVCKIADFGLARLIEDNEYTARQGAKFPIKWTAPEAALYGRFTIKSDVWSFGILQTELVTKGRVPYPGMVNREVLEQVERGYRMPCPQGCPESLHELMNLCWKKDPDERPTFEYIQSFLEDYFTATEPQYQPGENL
Chain of JAK2 (O60674 whole entry): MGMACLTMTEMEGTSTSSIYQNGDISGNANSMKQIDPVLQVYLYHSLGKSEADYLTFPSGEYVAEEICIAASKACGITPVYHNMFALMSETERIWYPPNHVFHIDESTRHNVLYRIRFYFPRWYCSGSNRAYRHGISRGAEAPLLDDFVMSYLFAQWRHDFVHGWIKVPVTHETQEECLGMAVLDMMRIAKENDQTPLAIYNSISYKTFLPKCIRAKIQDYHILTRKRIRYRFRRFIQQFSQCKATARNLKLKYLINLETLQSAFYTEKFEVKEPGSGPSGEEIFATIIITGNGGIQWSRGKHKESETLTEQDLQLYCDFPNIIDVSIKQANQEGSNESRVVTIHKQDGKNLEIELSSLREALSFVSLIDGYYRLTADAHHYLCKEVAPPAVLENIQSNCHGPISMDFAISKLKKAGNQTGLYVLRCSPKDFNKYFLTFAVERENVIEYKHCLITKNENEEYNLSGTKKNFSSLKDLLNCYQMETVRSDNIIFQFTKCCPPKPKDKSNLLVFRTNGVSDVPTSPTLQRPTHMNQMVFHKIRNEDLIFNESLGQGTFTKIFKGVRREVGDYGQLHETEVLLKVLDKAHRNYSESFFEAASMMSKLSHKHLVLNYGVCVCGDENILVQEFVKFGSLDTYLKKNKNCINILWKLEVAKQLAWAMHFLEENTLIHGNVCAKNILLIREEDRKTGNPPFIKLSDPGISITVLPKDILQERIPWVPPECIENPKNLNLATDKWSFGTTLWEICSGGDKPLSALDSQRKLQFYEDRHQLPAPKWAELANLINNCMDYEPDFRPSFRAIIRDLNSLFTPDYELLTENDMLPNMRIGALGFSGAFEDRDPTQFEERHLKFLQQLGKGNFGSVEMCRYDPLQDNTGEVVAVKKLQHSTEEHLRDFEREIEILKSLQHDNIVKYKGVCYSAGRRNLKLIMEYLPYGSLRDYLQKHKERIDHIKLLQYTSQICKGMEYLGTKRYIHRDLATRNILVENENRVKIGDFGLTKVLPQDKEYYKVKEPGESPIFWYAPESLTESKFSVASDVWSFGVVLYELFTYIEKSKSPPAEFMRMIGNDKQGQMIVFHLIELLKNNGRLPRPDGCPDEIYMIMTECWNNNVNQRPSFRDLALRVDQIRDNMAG
Chain of IR (P06213 28-1382): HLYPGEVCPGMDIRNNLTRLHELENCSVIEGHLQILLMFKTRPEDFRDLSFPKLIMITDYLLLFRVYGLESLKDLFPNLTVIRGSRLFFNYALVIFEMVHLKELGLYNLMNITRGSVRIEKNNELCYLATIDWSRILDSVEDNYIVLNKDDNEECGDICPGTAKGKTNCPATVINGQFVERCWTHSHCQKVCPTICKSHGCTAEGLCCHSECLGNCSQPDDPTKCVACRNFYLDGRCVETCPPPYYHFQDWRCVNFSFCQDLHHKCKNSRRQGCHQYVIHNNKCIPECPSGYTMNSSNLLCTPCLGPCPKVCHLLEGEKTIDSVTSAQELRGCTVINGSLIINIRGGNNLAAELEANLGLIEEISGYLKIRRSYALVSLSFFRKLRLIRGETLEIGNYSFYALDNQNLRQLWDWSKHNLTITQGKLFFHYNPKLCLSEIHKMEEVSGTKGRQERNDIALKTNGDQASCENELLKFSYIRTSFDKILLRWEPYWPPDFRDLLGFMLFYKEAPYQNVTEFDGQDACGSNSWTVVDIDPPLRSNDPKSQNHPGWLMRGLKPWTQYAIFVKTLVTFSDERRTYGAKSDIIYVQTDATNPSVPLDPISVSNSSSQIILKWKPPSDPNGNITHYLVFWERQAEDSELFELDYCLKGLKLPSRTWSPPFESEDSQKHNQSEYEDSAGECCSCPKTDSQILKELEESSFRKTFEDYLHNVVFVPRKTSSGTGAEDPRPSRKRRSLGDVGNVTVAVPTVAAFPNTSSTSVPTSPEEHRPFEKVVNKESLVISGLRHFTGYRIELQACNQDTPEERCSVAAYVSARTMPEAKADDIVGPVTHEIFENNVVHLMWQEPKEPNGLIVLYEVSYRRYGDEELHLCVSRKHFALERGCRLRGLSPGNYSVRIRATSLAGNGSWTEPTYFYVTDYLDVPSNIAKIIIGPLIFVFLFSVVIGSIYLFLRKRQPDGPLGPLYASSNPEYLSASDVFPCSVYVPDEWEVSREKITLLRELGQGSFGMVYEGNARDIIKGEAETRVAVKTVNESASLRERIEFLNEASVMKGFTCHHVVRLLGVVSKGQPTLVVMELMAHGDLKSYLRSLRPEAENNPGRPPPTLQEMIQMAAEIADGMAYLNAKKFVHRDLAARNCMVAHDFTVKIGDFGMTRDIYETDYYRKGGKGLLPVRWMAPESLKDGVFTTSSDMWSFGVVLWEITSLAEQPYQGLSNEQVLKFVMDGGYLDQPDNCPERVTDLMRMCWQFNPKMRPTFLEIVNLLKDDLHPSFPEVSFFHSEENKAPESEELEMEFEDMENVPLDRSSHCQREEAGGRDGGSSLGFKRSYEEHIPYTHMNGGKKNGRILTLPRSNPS

C=CS(=O)(=O)c1ccc(Nc2nc(OCC3CCCCC3)c3nc[nH]c3n2)cc1 [NU6300, 6-(cyclohexylmethoxy)-N-(4-(vinylsulfonyl)phenyl)-9H-purin-2-amine]
remaining activity at 0.5 µM (YES1; [1]): 135% | remaining activity at 0.5 µM (YES1; [2]): 43% | remaining activity at 0.5 µM (IR; [1]): 58% | remaining activity at 0.5 µM (IR; [2]): 48% | remaining activity at 0.5 µM (PDK1; [1]): 40% | remaining activity at 0.5 µM (PDK1; [2]): 29% | remaining activity at 0.5 µM (TBK1; [1]): 75% | remaining activity at 0.5 µM (TBK1; [2]): 62% | remaining activity at 0.5 µM (JAK2; [1]): 7% | remaining activity at 0.5 µM (JAK2; [2]): 9% | remaining activity at 0.5 µM (CDK2-Cyclin A; [1]): 9% | remaining activity at 0.5 µM (CDK2-Cyclin A; [2]): 26% | additional loss of activity after pre-incubation (CDK2-Cyclin A; CDK2, 4-hr pre-incubation vs usual format, 0.5 µM): > 50%
